What all share (type): biochemical
Test [1] deals with SIK2 (Homo sapiens, UniProt Q9H0K1). Put plainly: SIK2 kinase assay, IMAP fluorescence polarization. Conditions: 50 or 100 μM ATP; average; read-out: SIK2-AVERAGE Ki. In general terms: Fluorescence polarisation rises when a labelled molecule tumbles more slowly, as on binding a larger partner.
Test [2] concerns the target SIK3 (Homo sapiens, UniProt Q9Y2K2). Description: SIK3 kinase assay, IMAP fluorescence polarization. The note with it: 50 or 100 μM ATP; average; read-out: SIK3-AVERAGE Ki.
Test [3] deals with Abl (Homo sapiens, UniProt P00519). Put plainly: Abl kinase assay, IMAP fluorescence polarization. Conditions: 50 or 100 μM ATP; average; read-out: Abl-AVERAGE Ki.
Test [4] deals with SIK1 (Homo sapiens, UniProt P57059). Put plainly: SIK1 kinase assay, IMAP fluorescence polarization. The note with it: 50 or 100 μM ATP; average; read-out: SIK1-AVERAGE Ki.
Test [5] has as its target EPHA2 (Homo sapiens, UniProt P29317). Description: EPHA2 kinase assay, IMAP fluorescence polarization.
In test [6] the target is Src (Homo sapiens, UniProt P12931). Put plainly: Src kinase assay, IMAP fluorescence polarization. Conditions: 50 or 100 μM ATP; average; read-out: Src-AVERAGE Ki.

Like-named read-outs stand apart in the source and are kept apart here.

A word on the Ki: it is a dissociation constant, usually derived from enzyme kinetics or from competition with a known ligand.

Sequence of SIK2 (Q9H0K1 whole entry): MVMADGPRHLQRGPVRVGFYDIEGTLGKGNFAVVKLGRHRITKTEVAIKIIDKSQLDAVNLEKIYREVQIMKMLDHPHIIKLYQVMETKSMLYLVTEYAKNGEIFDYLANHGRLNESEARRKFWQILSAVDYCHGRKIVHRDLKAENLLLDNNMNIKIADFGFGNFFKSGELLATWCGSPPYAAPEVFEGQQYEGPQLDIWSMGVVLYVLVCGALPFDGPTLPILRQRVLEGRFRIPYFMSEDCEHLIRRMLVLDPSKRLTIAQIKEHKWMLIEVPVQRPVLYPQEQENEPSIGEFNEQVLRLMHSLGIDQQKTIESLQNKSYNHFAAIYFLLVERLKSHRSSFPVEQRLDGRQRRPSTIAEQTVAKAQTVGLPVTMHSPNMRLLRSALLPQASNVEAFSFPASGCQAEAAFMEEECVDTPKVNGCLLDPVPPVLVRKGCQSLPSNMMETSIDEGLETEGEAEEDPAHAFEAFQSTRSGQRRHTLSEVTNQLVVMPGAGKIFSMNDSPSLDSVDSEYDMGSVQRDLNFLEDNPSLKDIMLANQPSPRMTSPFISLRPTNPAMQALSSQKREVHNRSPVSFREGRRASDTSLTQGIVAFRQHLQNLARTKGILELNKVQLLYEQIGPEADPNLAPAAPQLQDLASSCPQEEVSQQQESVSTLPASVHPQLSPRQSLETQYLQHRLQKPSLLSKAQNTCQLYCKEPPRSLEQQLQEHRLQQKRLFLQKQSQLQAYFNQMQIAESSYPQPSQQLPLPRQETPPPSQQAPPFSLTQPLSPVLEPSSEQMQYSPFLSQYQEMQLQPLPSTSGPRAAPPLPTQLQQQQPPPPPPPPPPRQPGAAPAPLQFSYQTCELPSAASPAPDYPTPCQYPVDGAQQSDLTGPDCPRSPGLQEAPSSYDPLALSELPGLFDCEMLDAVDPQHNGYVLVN
Sequence of SIK3 (Q9Y2K2 whole entry): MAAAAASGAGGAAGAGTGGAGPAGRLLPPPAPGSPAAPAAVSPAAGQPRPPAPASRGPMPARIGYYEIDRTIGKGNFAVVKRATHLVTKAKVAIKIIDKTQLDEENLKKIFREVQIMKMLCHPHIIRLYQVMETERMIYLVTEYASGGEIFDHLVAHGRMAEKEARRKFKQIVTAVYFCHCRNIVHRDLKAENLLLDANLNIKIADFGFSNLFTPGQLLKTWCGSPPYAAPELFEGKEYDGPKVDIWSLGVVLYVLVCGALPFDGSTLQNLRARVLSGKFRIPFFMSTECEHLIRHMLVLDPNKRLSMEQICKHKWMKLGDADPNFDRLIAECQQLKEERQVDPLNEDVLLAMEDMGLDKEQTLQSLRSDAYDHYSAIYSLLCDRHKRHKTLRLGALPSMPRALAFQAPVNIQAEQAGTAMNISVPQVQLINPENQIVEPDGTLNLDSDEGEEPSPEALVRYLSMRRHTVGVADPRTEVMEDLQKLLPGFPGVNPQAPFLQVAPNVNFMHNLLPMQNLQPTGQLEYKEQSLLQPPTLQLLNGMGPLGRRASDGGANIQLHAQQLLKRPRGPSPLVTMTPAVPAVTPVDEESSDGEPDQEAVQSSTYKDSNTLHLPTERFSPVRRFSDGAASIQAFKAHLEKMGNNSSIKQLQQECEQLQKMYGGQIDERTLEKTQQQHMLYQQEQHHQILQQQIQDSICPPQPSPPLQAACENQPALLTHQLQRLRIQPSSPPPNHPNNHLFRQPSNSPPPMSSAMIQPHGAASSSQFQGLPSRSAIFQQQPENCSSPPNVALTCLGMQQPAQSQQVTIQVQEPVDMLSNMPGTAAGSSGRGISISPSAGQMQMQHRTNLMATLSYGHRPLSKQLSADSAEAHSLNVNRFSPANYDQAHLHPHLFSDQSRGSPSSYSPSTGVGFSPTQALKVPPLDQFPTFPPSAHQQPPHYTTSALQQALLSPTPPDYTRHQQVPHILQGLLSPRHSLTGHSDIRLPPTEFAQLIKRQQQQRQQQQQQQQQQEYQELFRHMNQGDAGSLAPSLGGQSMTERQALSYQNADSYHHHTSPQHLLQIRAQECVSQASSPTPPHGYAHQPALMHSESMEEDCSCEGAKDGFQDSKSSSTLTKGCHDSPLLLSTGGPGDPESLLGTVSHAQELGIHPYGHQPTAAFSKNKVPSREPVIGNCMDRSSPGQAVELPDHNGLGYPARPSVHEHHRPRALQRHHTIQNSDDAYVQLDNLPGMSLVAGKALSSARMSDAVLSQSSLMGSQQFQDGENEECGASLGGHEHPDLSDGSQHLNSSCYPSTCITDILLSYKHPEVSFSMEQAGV
Sequence of EPHA2 (P29317 24-976): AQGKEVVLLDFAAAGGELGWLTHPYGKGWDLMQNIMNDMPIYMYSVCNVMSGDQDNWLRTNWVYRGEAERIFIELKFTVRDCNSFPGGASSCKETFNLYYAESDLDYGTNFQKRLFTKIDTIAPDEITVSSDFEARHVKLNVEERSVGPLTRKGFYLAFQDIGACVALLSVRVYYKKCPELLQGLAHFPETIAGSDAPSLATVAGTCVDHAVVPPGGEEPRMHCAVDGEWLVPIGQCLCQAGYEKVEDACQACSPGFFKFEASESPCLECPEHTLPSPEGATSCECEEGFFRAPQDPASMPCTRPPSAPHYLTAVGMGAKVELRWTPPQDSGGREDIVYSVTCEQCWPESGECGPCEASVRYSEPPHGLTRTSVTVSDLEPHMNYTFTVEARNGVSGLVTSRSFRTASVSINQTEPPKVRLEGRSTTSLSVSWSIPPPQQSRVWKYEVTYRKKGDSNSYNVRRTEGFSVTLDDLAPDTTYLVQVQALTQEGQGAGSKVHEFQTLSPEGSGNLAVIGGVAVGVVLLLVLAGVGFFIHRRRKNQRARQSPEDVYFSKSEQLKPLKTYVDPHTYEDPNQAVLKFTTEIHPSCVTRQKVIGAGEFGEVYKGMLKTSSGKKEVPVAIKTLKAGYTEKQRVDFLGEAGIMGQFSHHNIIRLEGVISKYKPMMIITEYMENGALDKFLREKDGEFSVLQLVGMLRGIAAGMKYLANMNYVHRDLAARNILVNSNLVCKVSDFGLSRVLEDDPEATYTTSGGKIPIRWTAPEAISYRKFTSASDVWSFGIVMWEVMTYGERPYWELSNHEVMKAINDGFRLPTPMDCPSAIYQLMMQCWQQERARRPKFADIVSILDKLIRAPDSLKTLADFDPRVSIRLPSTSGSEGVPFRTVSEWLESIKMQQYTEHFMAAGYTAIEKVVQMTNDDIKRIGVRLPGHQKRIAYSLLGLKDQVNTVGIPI
Sequence of Abl (P00519 whole entry): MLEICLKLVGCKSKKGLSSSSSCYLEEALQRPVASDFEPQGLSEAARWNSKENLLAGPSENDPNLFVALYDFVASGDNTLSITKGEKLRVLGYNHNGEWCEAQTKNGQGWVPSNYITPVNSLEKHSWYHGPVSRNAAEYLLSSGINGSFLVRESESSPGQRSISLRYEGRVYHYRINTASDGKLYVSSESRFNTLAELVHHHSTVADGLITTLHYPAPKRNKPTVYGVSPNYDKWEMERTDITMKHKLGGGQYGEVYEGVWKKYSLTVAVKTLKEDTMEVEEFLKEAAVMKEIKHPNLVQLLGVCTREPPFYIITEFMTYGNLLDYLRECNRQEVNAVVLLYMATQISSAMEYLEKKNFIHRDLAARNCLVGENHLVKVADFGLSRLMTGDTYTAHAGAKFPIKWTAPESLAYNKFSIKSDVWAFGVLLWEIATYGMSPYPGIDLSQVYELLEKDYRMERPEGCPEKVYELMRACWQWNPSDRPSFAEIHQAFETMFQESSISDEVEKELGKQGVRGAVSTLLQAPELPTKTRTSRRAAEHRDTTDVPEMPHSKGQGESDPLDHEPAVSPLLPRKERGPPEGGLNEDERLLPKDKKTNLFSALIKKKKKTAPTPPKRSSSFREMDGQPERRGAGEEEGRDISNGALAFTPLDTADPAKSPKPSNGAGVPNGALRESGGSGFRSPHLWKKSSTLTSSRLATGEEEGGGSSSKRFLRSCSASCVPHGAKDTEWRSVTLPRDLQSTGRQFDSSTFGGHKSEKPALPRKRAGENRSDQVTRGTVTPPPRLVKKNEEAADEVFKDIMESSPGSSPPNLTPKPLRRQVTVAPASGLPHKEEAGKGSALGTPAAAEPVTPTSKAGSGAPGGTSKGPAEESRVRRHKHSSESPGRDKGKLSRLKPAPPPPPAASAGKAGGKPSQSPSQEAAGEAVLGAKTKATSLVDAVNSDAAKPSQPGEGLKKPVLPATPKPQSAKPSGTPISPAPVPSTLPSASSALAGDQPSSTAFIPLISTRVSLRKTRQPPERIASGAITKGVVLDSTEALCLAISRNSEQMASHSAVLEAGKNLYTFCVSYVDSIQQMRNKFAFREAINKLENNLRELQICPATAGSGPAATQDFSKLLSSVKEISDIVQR
Sequence of Src (P12931 whole entry): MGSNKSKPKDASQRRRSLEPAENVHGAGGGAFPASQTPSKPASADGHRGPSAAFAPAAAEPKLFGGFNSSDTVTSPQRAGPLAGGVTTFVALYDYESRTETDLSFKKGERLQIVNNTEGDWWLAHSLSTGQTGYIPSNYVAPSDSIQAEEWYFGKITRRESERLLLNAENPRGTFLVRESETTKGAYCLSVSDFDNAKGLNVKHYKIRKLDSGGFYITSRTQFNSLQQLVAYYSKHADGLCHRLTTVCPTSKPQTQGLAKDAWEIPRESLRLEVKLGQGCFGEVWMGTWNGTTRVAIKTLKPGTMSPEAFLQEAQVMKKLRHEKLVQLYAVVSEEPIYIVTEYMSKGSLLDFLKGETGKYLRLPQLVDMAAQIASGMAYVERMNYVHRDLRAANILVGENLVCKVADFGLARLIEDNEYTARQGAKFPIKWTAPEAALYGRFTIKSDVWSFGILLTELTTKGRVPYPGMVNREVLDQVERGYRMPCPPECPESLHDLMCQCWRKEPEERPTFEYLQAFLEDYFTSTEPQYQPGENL

Take `Cc1cccc(F)c1N1Cc2cnc(N)cc2N([C@@H]2CCCNC2)C1=O` [Example 48, 7-amino-3-(2-fluoro-6-methyl-phenyl)-1-[(3R)-3-piperidyl]-4H-pyrido[4,3-d]pyrimidin-2-one]: the Ki in test [1] is 0.348 nM; in test [2], 4 nM; in test [3] it was > 1000 nM; in test [4] it was 1.26 nM; in test [5], 68.5 nM; in test [6], 132 nM.
For the compound `Cc1cccc(F)c1N1Cc2cnc(N)nc2N([C@H]2CCCCNC2)C1=O` [Example 70, 7-amino-1-[(3S)-azepan-3-yl]-3-(2-fluoro-6-methyl-phenyl)-4H-pyrimido[4,5-d]pyrimidin-2-one], the Ki came to 0.278 nM in test [1]; 5.92 nM in test [2]; 85.7 nM in test [3]; 0.907 nM in test [4]; 73.8 nM in test [5] (50 or 100 μM ATP, average); 114 nM in test [6].
Consider `Cc1cccc(F)c1N1Cc2cnc(N)cc2N([C@@H]2CCCN(C)CC2)C1=O` [Example 84, 7-amino-3-(2-fluoro-6-methyl-phenyl)-1-[(4R)-1-methylazepan-4-yl]-4H-pyrido[4,3-d]pyrimidin-2-one], for which the Ki in test [1] stood at 0.14 nM; in test [2], 0.302 nM; in test [3], 14.9 nM; in test [4], 0.467 nM; in test [5] (50 or 100 μM ATP, average) it was 32.5 nM; in test [6] it was 126 nM.
Take `Cc1cccc(F)c1N1Cc2cnc(N)cc2N([C@H]2CCC[C@@H](N)C2)C1=O` (relative stereo) [Example 56, 7-amino-1-[(cis)-3-aminocyclohexyl]-3-(2-fluoro-6-methyl-phenyl)-4H-pyrido[4,3-d]pyrimidin-2-one]: the Ki in test [1] was 0.19 nM; in test [2], 1.46 nM; in test [3] it was 3.28 nM; in test [4], 0.604 nM; in test [5] (50 or 100 μM ATP, average), 42.3 nM; in test [6] it was 18.9 nM.
As to `Cc1cccc(F)c1N1Cc2cnc(N)nc2N([C@@H]2CCCCN(C)C2)C1=O` [Example 38, 7-amino-3-(2-fluoro-6-methyl-phenyl)-1-[(3R)-1-methylazepan-3-yl]-4H-pyrimido[4,5-d]pyrimidin-2-one], the Ki stood at 2.7 nM in test [1]; 46.7 nM in test [2]; 144 nM in test [3]; 9.57 nM in test [4]; 188 nM in test [5] (50 or 100 μM ATP, average); 678 nM in test [6].
Turning to `CNC1CCCC(N2C(=O)N(c3c(C)cccc3F)Cc3cnc(N)cc32)C1` (stereo not drawn) [Example 57, 7-amino-3-(2-fluoro-6-methyl-phenyl)-1-[3-(methylamino)cyclohexyl]-4H-pyrido[4,3-d]pyrimidin-2-one], the Ki in test [1] came out at 0.396 nM; in test [2], 3.05 nM; in test [3] it was 17 nM; in test [4], 1.1 nM; in test [5] (50 or 100 μM ATP, average), 42.6 nM; in test [6], 61.5 nM.
As to `Cc1cccc(F)c1N1Cc2cnc(N)nc2N([C@H]2CC[C@@H](N(C)C)CC2)C1=O` [Example 39, cis-7-amino-1-[4-(dimethylamino)cyclohexyl]-3-(2-fluoro-6-methyl-phenyl)-4H-pyrimido[4,5-d]pyrimidin-2-one], the Ki was 0.444 nM in test [1]; 3.87 nM in test [2]; 32.5 nM in test [3]; 1.66 nM in test [4]; 35.8 nM in test [5] (50 or 100 μM ATP, average); 86 nM in test [6].
As for `Cc1cccc(F)c1N1Cc2cnc(N)cc2N([C@H]2CC[C@@H](N)CC2)C1=O` [Example 62, cis-7-Amino-1-(4-aminocyclohexyl)-3-(2-fluoro-6-methyl-phenyl)-4H-pyrido[4,3-d]pyrimidin-2-one], the Ki in test [1] worked out at 0.147 nM; in test [2], 0.944 nM; in test [3], 42.4 nM; in test [4], 0.743 nM; in test [5] (50 or 100 μM ATP, average) it was 28.1 nM; in test [6], 31.2 nM.
Take `Cc1cccc(F)c1N1Cc2cnc(N)nc2N([C@H]2CCN(C)C2)C1=O` [Example 30, 7-amino-3-(2-fluoro-6-methyl-phenyl)-1-[(3S)-1-methylpyrrolidin-3-yl]-4H-pyrimido[4,5-d]pyrimidin-2-one]: the Ki in test [1] was 3.8 nM; in test [2] it was 64.5 nM; in test [3], 444 nM; in test [4], 12 nM; in test [5], 78.5 nM; in test [6], 1880 nM.
For `Cc1cccc(F)c1N1Cc2cnc(N)nc2N([C@H]2CCNC2)C1=O` [Example 65, 7-Amino-3-(2-fluoro-6-methyl-phenyl)-1-[(3S)-pyrrolidin-3-yl]-4H-pyrimido[4,5-d]pyrimidin-2-one], the Ki in test [1] is 1.11 nM; in test [2] it was 20.8 nM; in test [3] it was > 1000 nM; in test [4], 2.8 nM; in test [5] (50 or 100 μM ATP, average), 149 nM; in test [6], > 1000 nM.
As for `Cc1cccc(Cl)c1N1Cc2cnc(N)cc2N(C2CNC2)C1=O` [Example 8, 7-amino-1-(azetidin-3-yl)-3-(2-chloro-6-methyl-phenyl)-4H-pyrido[4,3-d]pyrimidin-2-one], the inhibition constant Ki in test [1] is 4.49 nM; in test [2], 45.6 nM; in test [3], > 1000 nM; in test [4] it was 7.76 nM; in test [5], 149 nM; in test [6] it was 158 nM.
`Cc1cccc(F)c1N1Cc2cnc(N)nc2N([C@@H]2CCCNCC2)C1=O` [Example 68, 7-amino-1-[(4R)-azepan-4-yl]-3-(2-fluoro-6-methyl-phenyl)-4H-pyrimido[4,5-d]pyrimidin-2-one]: the Ki was found to be 0.197 nM in test [1]; 0.845 nM in test [2]; 15.3 nM in test [3]; 0.397 nM in test [4]; 22.3 nM in test [5] (50 or 100 μM ATP, average); 47.7 nM in test [6].
Consider `CNc1cc2c(cn1)CN(c1c(C)cccc1F)C(=O)N2[C@H]1CC[C@@H](N(C)C)CC1` [Example 40, cis-1-[4-(dimethylamino)cyclohexyl]-3-(2-fluoro-6-methyl-phenyl)-7-(methylamino)-4H-pyrido[4,3-d]pyrimidin-2-one], for which the Ki in test [1] amounted to 1.25 nM; in test [2], 18.4 nM; in test [3], 62.7 nM; in test [4], 3.93 nM; in test [5] (50 or 100 μM ATP, average), 106 nM; in test [6] it was 626 nM.
In the case of `Cc1cccc(F)c1N1Cc2cnc(N)nc2N([C@H]2CC[C@H](N)CC2)C1=O` [Example 77, 7-amino-1-(4-aminocyclohexyl)-3-(2-fluoro-6-methyl-phenyl)-4H-pyrimido[4,5-d]pyrimidin-2-one], the Ki in test [1] is 0.222 nM; in test [2], 0.739 nM; in test [3], 27.7 nM; in test [4], 0.685 nM; in test [5] (50 or 100 μM ATP, average), 17.3 nM; in test [6], 64.6 nM.
Consider `Cc1cccc(F)c1N1Cc2cnc(N)nc2N([C@@H]2CCCNC2)C1=O` [Example 73, 7-amino-3-(2-fluoro-6-methyl-phenyl)-1-[(3R)-3-piperidyl]-4H-pyrimido[4,5-d]pyrimidin-2-one], for which the Ki stood at 0.94 nM in test [1]; 9.92 nM in test [2]; 36.8 nM in test [3]; 1.3 nM in test [4]; 56.6 nM in test [5] (50 or 100 μM ATP, average); 77.2 nM in test [6].
For `Cc1cccc(F)c1N1Cc2cnc(N)nc2N([C@H]2CCCNCC2)C1=O` [Example 69, 7-amino-1-[(4S)-azepan-4-yl]-3-(2-fluoro-6-methyl-phenyl)-4H-pyrimido[4,5-d]pyrimidin-2-one], the Ki in test [1] is 0.0997 nM; in test [2], 0.926 nM; in test [3] it was 19.7 nM; in test [4], 0.407 nM; in test [5] (50 or 100 μM ATP, average) it was 14.7 nM; in test [6] it was 44.2 nM.
On to `Cc1cccc(F)c1N1Cc2cnc(N)cc2N([C@@H]2CCNC2)C1=O` [Example 47, 7-Amino-3-(2-fluoro-6-methyl-phenyl)-1-[(3R)-pyrrolidin-3-yl]-4H-pyrido[4,3-d]pyrimidin-2-one], for which the Ki in test [1] is 1.32 nM; in test [2] it was 16.6 nM; in test [3], > 1000 nM; in test [4], 2.6 nM; in test [5] (50 or 100 μM ATP, average), 247 nM; in test [6], > 1000 nM.
For `CNc1cc2c(cn1)CN(c1c(C)cccc1F)C(=O)N2C1CN(C)C1` [Example 10, 3-(2-Fluoro-6-methyl-phenyl)-7-(methylamino)-1-(1-methylazetidin-3-yl)-4H-pyrido[4,3-d]pyrimidin-2-one], the Ki in test [1] was 14.8 nM; in test [2] it was 177 nM; in test [3] it was > 1000 nM; in test [4], 66.9 nM; in test [5] (50 or 100 μM ATP, average), > 1000 nM; in test [6] it was > 1000 nM.
Consider `Cc1cccc(F)c1N1Cc2cnc(N)cc2N(C2CNC2)C1=O` [Example 4, 7-amino-1-(azetidin-3-yl)-3-(2-fluoro-6-methyl-phenyl)-4H-pyrido[4,3-d]pyrimidin-2-one], for which the Ki in test [1] turned out to be 4.08 nM; in test [2] it was 35.3 nM; in test [3], 187 nM; in test [4], 7.92 nM; in test [5], 221 nM; in test [6] it was 547 nM.
Consider `Cc1cccc(F)c1N1Cc2cnc(N)nc2N([C@H]2CCCNC2)C1=O` [Example 71, 7-amino-3-(2-fluoro-6-methyl-phenyl)-1-[(3S)-3-piperidyl]-4H-pyrimido[4,5-d]pyrimidin-2-one], for which the inhibition constant (Ki) worked out at 0.368 nM in test [1]; 6.28 nM in test [2]; 104 nM in test [3]; 1.26 nM in test [4]; 88.5 nM in test [5] (50 or 100 μM ATP, average); 391 nM in test [6].

For the origin of these results see US12509457B2, “Bicyclic nitrogen containing heterocycles as inhibitors of salt-induced kinase SIK2” (priority 2019, dated 2025).
